{"source": "patent US8575183B2", "about": "“Heterocyclic compounds and their uses” (priority 2010, dated 2013)", "note": "Several values for one entry are separate records, joined by “and”; a condition that tells them apart may be missing. Identical values can stand only once."}
{"molecular_target": "T1, PI3k δ (Homo sapiens, UniProt O00329)", "T1 construct": "Full length p110 subunits of PI3k α, β and δ; polyHis (N); made in house; host or cells: Sf9 insect cells (baculovirus)", "T1 sequence (O00329 whole entry)": "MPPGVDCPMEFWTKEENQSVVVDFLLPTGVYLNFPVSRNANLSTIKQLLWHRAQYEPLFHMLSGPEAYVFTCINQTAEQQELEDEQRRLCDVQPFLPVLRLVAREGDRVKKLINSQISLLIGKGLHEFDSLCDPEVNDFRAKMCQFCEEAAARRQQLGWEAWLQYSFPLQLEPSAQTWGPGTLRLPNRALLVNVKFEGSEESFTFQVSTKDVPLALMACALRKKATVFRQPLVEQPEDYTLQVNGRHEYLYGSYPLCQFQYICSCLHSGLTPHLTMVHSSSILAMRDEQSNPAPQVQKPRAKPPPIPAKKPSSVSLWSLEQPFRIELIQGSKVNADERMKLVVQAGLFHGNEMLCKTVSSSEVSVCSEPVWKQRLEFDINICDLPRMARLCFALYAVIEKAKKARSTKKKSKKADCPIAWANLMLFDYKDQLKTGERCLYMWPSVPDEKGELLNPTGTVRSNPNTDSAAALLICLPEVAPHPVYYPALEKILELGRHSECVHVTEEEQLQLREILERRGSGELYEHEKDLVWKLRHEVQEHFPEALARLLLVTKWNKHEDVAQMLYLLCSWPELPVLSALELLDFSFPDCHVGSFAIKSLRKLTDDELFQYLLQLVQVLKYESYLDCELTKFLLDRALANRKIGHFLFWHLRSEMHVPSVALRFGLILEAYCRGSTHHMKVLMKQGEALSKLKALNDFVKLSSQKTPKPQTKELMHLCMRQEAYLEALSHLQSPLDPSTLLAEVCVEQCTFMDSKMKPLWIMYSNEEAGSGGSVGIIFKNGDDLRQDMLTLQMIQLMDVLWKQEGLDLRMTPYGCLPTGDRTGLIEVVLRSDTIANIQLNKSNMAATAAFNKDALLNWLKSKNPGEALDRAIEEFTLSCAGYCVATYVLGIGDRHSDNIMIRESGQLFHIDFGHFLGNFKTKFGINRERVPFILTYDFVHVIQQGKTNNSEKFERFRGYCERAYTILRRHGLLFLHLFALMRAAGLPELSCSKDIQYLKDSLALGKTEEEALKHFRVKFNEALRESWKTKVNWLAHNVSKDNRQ", "T1 sequence (P27986 whole entry partner)": "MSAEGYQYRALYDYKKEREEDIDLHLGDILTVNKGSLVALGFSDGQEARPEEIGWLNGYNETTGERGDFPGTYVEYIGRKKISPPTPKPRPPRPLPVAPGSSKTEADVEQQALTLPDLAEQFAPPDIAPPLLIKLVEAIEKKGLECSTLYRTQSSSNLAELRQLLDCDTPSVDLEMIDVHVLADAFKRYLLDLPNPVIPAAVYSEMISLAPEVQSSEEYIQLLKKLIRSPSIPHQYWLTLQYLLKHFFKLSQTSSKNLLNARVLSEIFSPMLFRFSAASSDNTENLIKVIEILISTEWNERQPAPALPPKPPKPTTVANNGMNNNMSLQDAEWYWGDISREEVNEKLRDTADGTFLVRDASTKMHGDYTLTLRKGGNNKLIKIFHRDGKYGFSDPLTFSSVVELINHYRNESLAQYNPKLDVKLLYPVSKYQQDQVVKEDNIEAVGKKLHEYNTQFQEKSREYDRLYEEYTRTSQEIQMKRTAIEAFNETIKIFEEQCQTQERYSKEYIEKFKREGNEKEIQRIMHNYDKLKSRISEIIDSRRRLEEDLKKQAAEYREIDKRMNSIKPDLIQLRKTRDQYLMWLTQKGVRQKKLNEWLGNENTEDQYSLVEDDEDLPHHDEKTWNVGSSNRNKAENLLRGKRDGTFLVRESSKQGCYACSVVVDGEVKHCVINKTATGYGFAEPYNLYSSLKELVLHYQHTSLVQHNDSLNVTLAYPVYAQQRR", "test": "biochemical", "type": "biochemical", "conditions": "not given", "experimental": "(§1) Full length p110 subunits of PI3k α, β and δ, N-terminally labeled with polyHis tag, were coexpressed with p85 with Baculo virus expression vectors in sf9 insect cells. P110/p85 heterodimers were purified by sequential Ni-NTA, Q-HP, Superdex-100 chromatography. Purified α, β and δ isozymes were stored at −20° C. in 20 mM Tris, pH 8, 0.2M NaCl, 50% glycerol, 5 mM DTT, 2 mM Na cholate. […] The γ isozyme was purified by sequential Ni-NTA, Superdex-200, Q-HP chromatography. The γ isozyme was stored frozen at −80° C. in NaH2PO4, pH 8, 0.2M NaCl, 1% ethylene glycol, 2 mM β-mercaptoethanol.\n(§2) Phospatidyl inositol phosphoacceptor, Ptdlns(4,5)P2 P4508, was from Echelon Biosciences. […] Test compounds were dissolved in dimethyl sulfoxide and diluted with three-fold serial dilutions. The compound in DMSO (1 μL) was added per test well, and the inhibition relative to reactions containing no compound, with and without enzyme was determined. After assay incubation at rt, the reaction was stopped and residual ATP determined by addition of an equal volume of a commercial ATP bioluminescence kit (Perkin Elmer EasyLite) according to the manufacturer's instructions, and detected using a AnalystGT luminometer.", "units": {"Ki": "nM"}}
{"smiles": "CC(Nc1ncnc(N)c1C#N)c1nc2cccc(S(C)(=O)=O)c2n1C1CC1", "note": "(stereo not shown)", "Ki": 3.76}
{"molecular_target": "T1, PI3k δ", "test": "biochemical", "type": "biochemical", "conditions": "read-out: PI3k δ Ki", "experimental": "as §1, §2"}
{"smiles": "C[C@H](Nc1ncnc(N)c1C#N)c1nc2cccc(C(=O)NC3CCCC3)c2n1C1CC1", "note": "[2-((1S)-1-((6-amino-5-cyano-4-pyrimidinyl)amino)ethyl)-N-cyclopentyl-1-cyclopropyl-1H-benzimidazole-7-carboxamide]", "Ki": "18.4 nM"}
{"smiles": "CNC(=O)c1cccc2nc([C@H](C)Nc3ncnc(N)c3-c3ccc(S(C)(=O)=O)cc3)n(C3CC3)c12", "note": "[2-((1S)-1-((6-amino-5-(4-(methylsulfonyl)phenyl)-4-pyrimidinyl)amino)ethyl)-1-cyclopropyl-N-methyl-1H-benzimidazole-7-carboxamide]", "Ki": "10.5 nM"}
{"smiles": "C[C@H](Nc1ncnc(N)c1C#N)c1nc2cccc(C(=O)NC(C)(C)C)c2n1C1CC1", "note": "[2-((1S)-1-((6-amino-5-cyano-4-pyrimidinyl)amino)ethyl)-N-tert-butyl-1-cyclopropyl-1H-benzimidazole-7-carboxamide]", "Ki": "73.8 nM"}
{"smiles": "C[C@H](Nc1ncnc(N)c1C#N)c1nc2cccc(F)c2n1-c1cc(F)cc(F)c1", "note": "[4-amino-6-(((1S)-1-(1-(3,5-difluorophenyl)-7-fluoro-1H-benzimidazol-2-yl)ethyl)amino)-5-pyrimidinecarbonitrile]", "Ki": "3.7 nM"}
{"smiles": "CNC(=O)c1cccc2nc([C@@H](C)Nc3ncnc(N)c3C#N)n(-c3cncc(F)c3)c12", "note": "[2-((1R)-1-((6-amino-5-cyano-4-pyrimidinyl)amino)ethyl)-1-(5-fluoro-3-pyridinyl)-N-methyl-1H-benzimidazole-7-carboxamide]", "Ki": "1370 nM"}
{"smiles": "CC(Nc1ncnc(N)c1C#N)c1sc2ccccc2c1-c1ccccc1", "note": "(stereo not shown) [4-amino-6-((1-(3-phenyl-1-benzothiophen-2-yl)ethyl)amino)-5-pyrimidinecarbonitrile]", "Ki": "2.66 nM"}
{"smiles": "CNC(=O)c1cccc2nc([C@H](C)Nc3ncnc(N)c3C#N)c(-c3cncc(F)c3)n12", "note": "[2-((1S)-1-((6-amino-5-cyano-4-pyrimidinyl)amino)ethyl)-3-(5-fluoro-3-pyridinyl)-N-methylimidazo[1,2-a]pyridine-5-carboxamide]", "Ki": "81.1 nM"}
{"smiles": "N#Cc1c(N)ncnc1NCc1nc2c(Cl)cccn2c1-c1ccccc1", "note": "[4-amino-6-(((8-chloro-3-phenylimidazo[1,2-a]pyridin-2-yl)methyl)amino)-5-pyrimidinecarbonitrile]", "Ki": "230 nM"}
{"smiles": "C[C@H](Nc1ncnc(N)c1C#N)c1nc2c(F)cccc2n1-c1cc(F)cc(F)c1", "note": "[4-amino-6-(((1S)-1-(1-(3,5-difluorophenyl)-4-fluoro-1H-benzimidazol-2-yl)ethyl)amino)-5-pyrimidinecarbonitrile]", "Ki": "6.4 nM and 2.1 nM"}
{"smiles": "CNC(=O)c1cccc2nc([C@H](C)Nc3ncnc(N)c3C#N)n(C3CC3)c12", "note": "[2-((1S)-1-((6-amino-5-cyano-4-pyrimidinyl)amino)ethyl)-1-cyclopropyl-N-methyl-1H-benzimidazole-7-carboxamide]", "Ki": "7.1 nM"}
{"smiles": "C[C@H](Nc1ncnc(N)c1C#N)c1nc2cccc(Br)c2n1-c1cncc(F)c1", "note": "[4-amino-6-(((1S)-1-(7-bromo-1-(5-fluoro-3-pyridinyl)-1H-benzimidazol-2-yl)ethyl)amino)-5-pyrimidinecarbonitrile]", "Ki": "48.1 nM"}
{"smiles": "C[C@@H](Nc1ncnc(N)c1C#N)c1nc2c(F)cc(F)cc2n1-c1cc(F)cc(F)c1", "note": "[4-amino-6-(((1R)-1-(1-(3,5-difluorophenyl)-4,6-difluoro-1H-benzimidazol-2-yl)ethyl)amino)-5-pyrimidinecarbonitrile]", "Ki": "251 nM"}
{"smiles": "COC(=O)c1cccc2nc([C@H](C)Nc3ncnc(N)c3C#N)c(-c3ccccc3)n12", "note": "[methyl 2-((1S)-1-((6-amino-5-cyano-4-pyrimidinyl)amino)ethyl)-3-phenylimidazo[1,2-a]pyridine-5-carboxylate]", "Ki": "39 nM"}
{"smiles": "C[C@H](Nc1ncnc2[nH]cnc12)c1nc2ccc(F)cc2n1-c1cncc(F)c1", "note": "[N-((1S)-1-(6-fluoro-1-(5-fluoro-3-pyridinyl)-1H-benzimidazol-2-yl)ethyl)-9H-purin-6-amine]", "Ki": "3.77 nM"}
{"smiles": "C[C@@H](Nc1ncnc(N)c1C#N)c1nc2cccc(C#N)c2n1-c1cncc(F)c1", "note": "[2-((1R)-1-((6-amino-5-cyano-4-pyrimidinyl)amino)ethyl)-1-(5-fluoro-3-pyridinyl)-1H-benzimidazole-7-carbonitrile]", "Ki": "325 nM"}
{"smiles": "C[C@@H](Nc1ncnc(N)c1C#N)c1nc2cc(F)ccc2n1-c1cncc(F)c1", "note": "[4-amino-6-(((1R)-1-(5-fluoro-1-(5-fluoro-3-pyridinyl)-1H-benzimidazol-2-yl)ethyl)amino)-5-pyrimidinecarbonitrile]", "Ki": "2820 nM"}
{"smiles": "C[C@H](Nc1ncnc(N)c1C#N)c1nc2ccc(F)cn2c1-c1ccc(Cl)cc1", "note": "[4-amino-6-(((1S)-1-(3-(4-chlorophenyl)-6-fluoroimidazo[1,2-a]pyridin-2-yl)ethyl)amino)-5-pyrimidinecarbonitrile]", "Ki": "25.1 nM"}
{"smiles": "C[C@@H](Nc1ncnc(N)c1C#N)c1nc2ccc(F)cc2n1-c1cccc(C#N)c1", "note": "[4-amino-6-(((1R)-1-(1-(3-cyanophenyl)-6-fluoro-1H-benzimidazol-2-yl)ethyl)amino)-5-pyrimidinecarbonitrile]", "Ki": "411 nM"}
{"smiles": "C[C@H](Nc1ncnc(N)c1C#N)c1nc2cccc(C(=O)N3CCN(C)CC3)n2c1-c1ccccc1", "note": "[4-amino-6-(((1S)-1-(5-((4-methyl-1-piperazinyl)carbonyl)-3-phenylimidazo[1,2-a]pyridin-2-yl)ethyl)amino)-5-pyrimidinecarbonitrile]", "Ki": "11.8 nM"}
{"smiles": "CNC(=O)c1cccc(-n2c([C@@H](C)Nc3ncnc(N)c3C#N)nc3ccc(F)cc32)c1", "note": "[3-(2-((1R)-1-((6-amino-5-cyano-4-pyrimidinyl)amino)ethyl)-6-fluoro-1H-benzimidazol-1-yl)-N-methylbenzamide]", "Ki": "4670 nM"}
{"smiles": "C[C@@H](Nc1ncnc(N)c1C#N)c1nc2ccc(F)cc2n1-c1cncc(NS(C)(=O)=O)c1", "note": "[N-(5-(2-((1R)-1-((6-amino-5-cyano-4-pyrimidinyl)amino)ethyl)-6-fluoro-1H-benzimidazol-1-yl)-3-pyridinyl)methanesulfonamide]", "Ki": "600 nM"}
{"smiles": "C[C@H](Nc1ncnc(N)c1C#N)c1nc2ccc(F)cc2n1-c1cccc(-c2ccccn2)c1", "note": "[4-amino-6-(((1S)-1-(6-fluoro-1-(3-(2-pyridinyl)phenyl)-1H-benzimidazol-2-yl)ethyl)amino)-5-pyrimidinecarbonitrile]", "Ki": "8.9 nM and 3.8 nM"}
{"smiles": "CC[C@H](Nc1ncnc(N)c1C#N)c1nc2cccc(S(C)(=O)=O)c2n1CC1CC1", "note": "[4-amino-6-(((1S)-1-(1-(cyclopropylmethyl)-7-(methylsulfonyl)-1H-benzimidazol-2-yl)propyl)amino)-5-pyrimidinecarbonitrile]", "Ki": "2.19 nM"}
{"smiles": "C[C@H](Nc1ncnc(N)c1C#N)c1nc2cccc(S(C)(=O)=O)c2n1CC1CC1", "note": "[4-amino-6-(((1S)-1-(1-(cyclopropylmethyl)-7-(methylsulfonyl)-1H-benzimidazol-2-yl)ethyl)amino)-5-pyrimidinecarbonitrile]", "Ki": "2.2 nM"}
{"smiles": "C[C@H](Nc1ncnc(N)c1C#N)c1nc2ncccn2c1-c1ccccn1", "note": "[4-amino-6-(((1S)-1-(3-(2-pyridinyl)imidazo[1,2-a]pyrimidin-2-yl)ethyl)amino)-5-pyrimidinecarbonitrile]", "Ki": "1580 nM"}
{"smiles": "C[C@H](Nc1ncnc(N)c1C#N)c1nc2cccc(C#N)c2n1-c1cncc(F)c1", "note": "[2-((1S)-1-((6-amino-5-cyano-4-pyrimidinyl)amino)ethyl)-1-(5-fluoro-3-pyridinyl)-1H-benzimidazole-7-carbonitrile]", "Ki": "171 nM"}
{"smiles": "C[C@H](Nc1ncnc2[nH]cnc12)c1nc2ccc(F)cc2n1-c1cccc(F)c1", "note": "[N-((1S)-1-(6-fluoro-1-(3-fluorophenyl)-1H-benzimidazol-2-yl)ethyl)-9H-purin-6-amine]", "Ki": "2.7 nM"}
{"smiles": "CNC(=O)c1cccc2nc([C@H](C)Nc3ncnc(N)c3C#N)n(-c3cncc(F)c3)c12", "note": "[2-((1S)-1-((6-amino-5-cyano-4-pyrimidinyl)amino)ethyl)-1-(5-fluoro-3-pyridinyl)-N-methyl-1H-benzimidazole-7-carboxamide]", "Ki": "10.2 nM"}
{"smiles": "CC(Nc1ncnc(N)c1C#N)c1sc2ccccc2c1-c1cc(F)cc(F)c1", "note": "(stereo not shown) [4-amino-6-((1-(3-(3,5-difluorophenyl)-1-benzothiophen-2-yl)ethyl)amino)-5-pyrimidinecarbonitrile]", "Ki": "3.33 nM"}
{"smiles": "C[C@H](Nc1ncnc(N)c1C#N)c1nc2c(S(C)(=O)=O)cccc2n1Cc1ccc(F)cc1", "note": "[4-amino-6-(((1S)-1-(1-(4-fluorobenzyl)-4-(methylsulfonyl)-1H-benzimidazol-2-yl)ethyl)amino)-5-pyrimidinecarbonitrile]", "Ki": "2410 nM"}
{"smiles": "C[C@H](Nc1ncnc(N)c1C#N)c1nc2c(F)cc(F)cc2n1-c1cccnc1", "note": "[4-amino-6-(((1S)-1-(4,6-difluoro-1-(3-pyridinyl)-1H-benzimidazol-2-yl)ethyl)amino)-5-pyrimidinecarbonitrile]", "Ki": "6.74 nM"}
{"smiles": "C[C@@H](Nc1ncnc(N)c1C#N)c1nc2ccc(F)cc2n1-c1cccc(-c2ccccn2)c1", "note": "[4-amino-6-(((1R)-1-(6-fluoro-1-(3-(2-pyridinyl)phenyl)-1H-benzimidazol-2-yl)ethyl)amino)-5-pyrimidinecarbonitrile]", "Ki": "132 nM"}
{"smiles": "C[C@H](Nc1ncnc(N)c1C#N)c1nc2ccc(F)cc2n1-c1cccc(F)n1", "note": "[4-amino-6-(((1S)-1-(6-fluoro-1-(6-fluoro-2-pyridinyl)-1H-benzimidazol-2-yl)ethyl)amino)-5-pyrimidinecarbonitrile]", "Ki": "8.89 nM"}
